The NIST ThermoML archive (doi:10.1021/acs.jced.8b00163)
Several values for one entry are separate records, joined by “and”; a condition that tells them apart may be missing. Equal entries are not always repeated. ± gives the expanded uncertainty stated by the source.

Settings: for mass density: 100 kPa, Vibrating tube method; for mass density / viscosity: Liquid; for surface tension liquid-gas / viscosity: Surface laser light scattering (SLLS)

Row | Structure (SMILES) | mass density (283.15 K) [kg/m3] | mass density (288.15 K) [kg/m3] | mass density (293.15 K) [kg/m3] | surface tension liquid-gas (298.15 K) [mN/m] | mass density (298.15 K) | viscosity (298.15 K) [mPa·s] | mass density (303.15 K) [kg/m3] | mass density (308.15 K) [kg/m3] | mass density (313.15 K) [kg/m3] | mass density (318.15 K) [kg/m3] | surface tension liquid-gas (323.15 K) [mN/m] | mass density (323.15 K) | viscosity (323.15 K) [mPa·s] | mass density (328.15 K) [kg/m3] | mass density (333.15 K) [kg/m3] | mass density (338.15 K) [kg/m3] | mass density (343.15 K) [kg/m3] | surface tension liquid-gas (348.15 K) [mN/m] | mass density (348.15 K) | viscosity (348.15 K) [mPa·s] | other results
1 | CCCCCCCC(C)C [2-methylnonane] | 735.134 ± 0.9 | 731.326 ± 0.9 | 727.469 ± 0.89 | 21.45 ± 0.3 | 723.54 ± 2.2 kg/m3 and 723.632 ± 0.89 kg/m3 | 0.8268 ± 0.028 | 719.96 ± 0.88 | 716.109 ± 0.88 | 712.275 ± 0.87 | 708.49 ± 0.87 | 19.65 ± 0.21 | 704.14 ± 2.2 kg/m3 and 704.628 ± 0.86 kg/m3 | 0.6035 ± 0.023 | 700.722 ± 0.86 | 696.794 ± 0.85 | 692.852 ± 0.85 | 688.883 ± 0.84 | 17.76 ± 0.19 | 684.896 ± 0.84 kg/m3 and 684.45 ± 2.1 kg/m3 | 0.4629 ± 0.019 | mass density (353.15 K): 680.89 ± 0.83 kg/m3; mass density (358.15 K): 676.827 ± 0.83 kg/m3; mass density (363.15 K): 672.811 ± 0.83 kg/m3; surface tension liquid-gas (373.15 K): 15.75 ± 0.19 mN/m; mass density (373.15 K): 664.34 ± 2 kg/m3; viscosity (373.15 K): 0.3623 ± 0.017 mPa·s; surface tension liquid-gas (398.15 K): 13.64 ± 0.19 mN/m; mass density (398.15 K): 643.46 ± 2 kg/m3; viscosity (398.15 K): 0.2897 ± 0.015 mPa·s; surface tension liquid-gas (423.15 K): 11.72 ± 0.21 mN/m; mass density (423.15 K): 621.59 ± 1.9 kg/m3; viscosity (423.15 K): 0.2365 ± 0.013 mPa·s; surface tension liquid-gas (448.15 K): 9.9 ± 0.17 mN/m; viscosity (448.15 K): 0.1989 ± 0.013 mPa·s
2 | CCCCCC(C)CCC (stereo not drawn) [4-methylnonane] | 739.362 ± 0.91 | 735.555 ± 0.9 | 731.743 ± 0.9 | 21.67 ± 0.28 | 728.35 ± 2.2 kg/m3 and 727.929 ± 0.89 kg/m3 | 0.7638 ± 0.027 | 724.098 ± 0.89 | 720.253 ± 0.88 | 716.396 ± 0.88 | 712.527 ± 0.87 | 20.06 ± 0.26 | 708.82 ± 2.2 kg/m3 and 708.634 ± 0.87 kg/m3 | 0.5533 ± 0.021 | 704.729 ± 0.86 | 700.808 ± 0.86 | 696.873 ± 0.85 | 692.918 ± 0.85 | 17.93 ± 0.19 | 688.94 ± 0.84 kg/m3 and 689 ± 2.1 kg/m3 | 0.4161 ± 0.018 | mass density (353.15 K): 684.943 ± 0.84 kg/m3; mass density (358.15 K): 680.922 ± 0.83 kg/m3; mass density (363.15 K): 676.877 ± 0.83 kg/m3; surface tension liquid-gas (373.15 K): 15.92 ± 0.2 mN/m; mass density (373.15 K): 668.81 ± 2.1 kg/m3; viscosity (373.15 K): 0.3279 ± 0.016 mPa·s; surface tension liquid-gas (398.15 K): 13.77 ± 0.27 mN/m; mass density (398.15 K): 647.86 ± 2 kg/m3; viscosity (398.15 K): 0.2644 ± 0.014 mPa·s; surface tension liquid-gas (423.15 K): 11.89 ± 0.13 mN/m; mass density (423.15 K): 626 ± 1.9 kg/m3; viscosity (423.15 K): 0.2168 ± 0.013 mPa·s; surface tension liquid-gas (448.15 K): 9.95 ± 0.14 mN/m; viscosity (448.15 K): 0.1801 ± 0.012 mPa·s
